Laboratory results as given in PubChem BioAssay (NCI).
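In this assay, cells in 96-well plates receive the compound at five concentrations for 48 hours. Endpoints are linearly interpolated between the surrounding concentrations. GI50 is the concentration that inhibits growth by half. The concentration for full growth arrest is given as TGI.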

Legend:
Assay in all cases: NCI anticancer screen, dose series, 48 h
A549 NSCLC = system: A549 NSCLC
ACHN renal = system: ACHN renal
HOP-92 NSCLC = system: HOP-92 NSCLC
IGROV1 ovarian = system: IGROV1 ovarian
MDA-MB-435 = system: MDA-MB-435
NCI-H226 lung = system: NCI-H226 lung
NCI-H522 lung = system: NCI-H522 lung
T-47D breast = system: T-47D breast
UO-31 renal = system: UO-31 renal
HOP-62 NSCLC = system: HOP-62 NSCLC

| Structure (SMILES) | GI50 (A549 NSCLC) | TGI (A549 NSCLC) | GI50 (ACHN renal) | TGI (ACHN renal) | GI50 (HOP-92 NSCLC) | TGI (HOP-92 NSCLC) | GI50 (IGROV1 ovarian) | TGI (IGROV1 ovarian) | GI50 (MDA-MB-435) | TGI (MDA-MB-435) | GI50 (NCI-H226 lung) | TGI (NCI-H226 lung) | GI50 (NCI-H522 lung) | TGI (NCI-H522 lung) | GI50 (T-47D breast) | TGI (T-47D breast) | GI50 (UO-31 renal) | TGI (UO-31 renal) | GI50 (HOP-62 NSCLC) | TGI (HOP-62 NSCLC) |
| --- | --- | --- | --- | --- | --- | --- | --- | --- | --- | --- | --- | --- | --- | --- | --- | --- | --- | --- | --- | --- |
| CN1CCN(c2ccc(NC3=CC(=O)c4ncncc4C3=O)cc2)CC1 | 0.405 µM | 2.3 µM | 0.228 µM | 0.52 µM | 0.312 µM | 0.993 µM | 0.231 µM | 0.542 µM | 0.191 µM | 0.35 µM | 1.51 µM | 3.47 µM | 0.597 µM | 1.72 µM | 0.231 µM | 0.651 µM | 0.27 µM | 0.761 µM | – | – |
| Cc1cc(N(CCNc2ccnc3cc(Cl)ccc23)Cc2ccc3c(c2)OCO3)nc(N2CCCC2)n1 | 1.67 µM | 4.96 µM | 1.91 µM | 4.09 µM | 0.695 µM | 2.86 µM | 1.54 µM | 3.64 µM | 1.62 µM | 3.18 µM | 2.46 µM | 6.86 µM | 1.74 µM | 3.79 µM | 1.93 µM | 5.44 µM | 1.26 µM | 2.99 µM | 1.86 µM | 10.2 µM |
| COC(=O)CC1=C(C)/C(=C/c2[nH]c(-c3ccc[nH]3)cc2OC)N=C1C | 0.248 µM | 3.69 µM | 0.247 µM | 1.29 µM | 0.0571 µM | 0.337 µM | 0.34 µM | 6.69 µM | 0.311 µM | 1.95 µM | 0.068 µM | 0.881 µM | 0.215 µM | 1.27 µM | 0.255 µM | 1.52 µM | 0.187 µM | 0.633 µM | 0.192 µM | 1.12 µM |
| CCC(c1ccccc1)c1cc(C(C)(C)C)cc(C(C)(C)C)c1O (centres undefined) | – | 29.8 µM | – | 32.6 µM | – | 30.1 µM | – | 30.7 µM | – | 32 µM | – | 35.1 µM | – | 27.2 µM | – | 29.6 µM | – | 32.3 µM | – | 29.7 µM |
| CSc1nc2c(c(=O)n1C)C(c1ccccc1)C1=C(N2)/C(=C/c2ccccc2)CCC1 (centres undefined) | > 100 µM | > 100 µM | 3.56 µM | 50.5 µM | 36.6 µM | > 100 µM | 13.6 µM | > 100 µM | 3.99 µM | > 100 µM | 18.4 µM | > 100 µM | 5.93 µM | > 100 µM | 4.15 µM | > 100 µM | 1.69 µM | 30.7 µM | 20 µM | > 100 µM |
| C(=N\Nc1ccc2ccccc2n1)/c1ccccn1 | 0.563 µM | > 100 µM | 0.367 µM | > 43.9 µM | 0.816 µM | 32.8 µM | 0.388 µM | 8.66 µM | 1.01 µM | > 52.7 µM | 0.508 µM | 19 µM | 0.319 µM | 11.8 µM | 0.574 µM | 38.5 µM | 0.304 µM | 2.66 µM | 0.431 µM | 6.98 µM |
| CC/C=C\C[C@H]1C/C=C2/C(=O)C(Cl)=C[C@@H]2C/C=C\CCCC(=O)O1 | 0.748 µM | 2.75 µM | 0.3 µM | 0.799 µM | 0.499 µM | 1.6 µM | 0.605 µM | 1.94 µM | 0.169 µM | 1.43 µM | 0.524 µM | 1.56 µM | 0.156 µM | 0.556 µM | 0.58 µM | 2.36 µM | 0.352 µM | 0.703 µM | 0.49 µM | 1.31 µM |
| COc1ccc(-c2[nH]ncc2Nc2cc(OC)c(OC)c(OC)c2)cc1 | 3.39 µM | > 100 µM | 10.3 µM | > 100 µM | > 62.9 µM | > 100 µM | 2.51 µM | > 100 µM | 0.177 µM | 0.395 µM | 29.1 µM | > 100 µM | 1.98 µM | 49.3 µM | 4.07 µM | > 100 µM | 3.29 µM | > 100 µM | 3.32 µM | > 95.3 µM |
| N=C(CC(=O)Nc1ccccn1)c1ccccc1 | – | > 100 µM | – | > 100 µM | – | > 100 µM | – | > 100 µM | – | > 100 µM | – | > 100 µM | – | > 100 µM | – | > 100 µM | – | > 100 µM | – | > 100 µM |
| O=C1NC(=NCCc2ccc(Br)cc2)S/C1=C\c1ccc2ncccc2c1 | > 25 µM | > 25 µM | > 25 µM | > 25 µM | > 25 µM | > 25 µM | > 25 µM | > 25 µM | 11.8 µM | > 25 µM | > 25 µM | > 25 µM | 12.9 µM | > 25 µM | > 17.1 µM | > 25 µM | > 25 µM | > 25 µM | > 25 µM | > 25 µM |
| N#CC1=C(N)OC2=C(CCOc3c2ccc2ccccc32)C1c1ccc(Br)cc1 (centres undefined) | 47.1 µM | > 100 µM | 41.3 µM | > 100 µM | 14.1 µM | 47.4 µM | – | – | 16 µM | 61.2 µM | – | – | > 100 µM | > 100 µM | > 100 µM | > 100 µM | > 100 µM | > 100 µM | 56.6 µM | > 100 µM |
| CCS(=O)(=O)c1ccc(OC)c(Nc2ncc(-c3cccc(F)c3)o2)c1 | > 25 µM | > 25 µM | > 25 µM | > 25 µM | > 25 µM | > 25 µM | > 25 µM | > 25 µM | > 25 µM | > 25 µM | 0.513 µM | > 25 µM | > 25 µM | > 25 µM | > 25 µM | > 25 µM | > 25 µM | > 25 µM | > 25 µM | > 25 µM |
| COc1ccc2nc3ccccc3c(NCCNCC(C)O)c2c1 (centres undefined) | – | – | 0.375 µM | 14.4 µM | 0.393 µM | 3.48 µM | 0.387 µM | 5.93 µM | 0.433 µM | 1.77 µM | 0.708 µM | 4.79 µM | 0.427 µM | 2.09 µM | 0.465 µM | 6.27 µM | 0.398 µM | 2.39 µM | 0.369 µM | 2.57 µM |
| O=C(C(=CN1CCN(C(=O)c2ccco2)C1=S)C(=O)c1ccccc1)c1ccccc1 | 11.3 µM | 29.1 µM | 5.75 µM | 16.5 µM | 27 µM | > 50 µM | 5.58 µM | 40.9 µM | 7.24 µM | 18.7 µM | – | – | – | – | > 50 µM | > 50 µM | 8.71 µM | 18.7 µM | 15.9 µM | 44.2 µM |
| CCCCCCCCN=C(NCCCCCCCC)SCc1cccc2ccccc12 | 1.67 µM | 3.13 µM | – | – | 1.03 µM | 2.28 µM | – | – | 1.58 µM | 3.03 µM | 1.52 µM | 2.95 µM | 1.38 µM | 2.87 µM | 1.55 µM | 3.01 µM | 1.27 µM | 2.86 µM | 1.71 µM | 3.13 µM |
| CCOCCOCCOCCOCCOCCOCCOCCOCCOCCO (tested in a mixture with another compound) | 1.21 µM | 8.66 µM | – | – | 0.643 µM | 2.9 µM | 3.19 µM | 15.8 µM | 1.45 µM | – | 1.22 µM | 12.5 µM | – | – | 1.12 µM | 7.16 µM | 1.58 µM | 18.7 µM | 1.07 µM | 4.45 µM |
| COc1cc(-c2ccc[nH]2)[nH]c1/C=C1\N=C(C)C(CC(=O)OCC(C)(C)C)=C1C | 0.244 µM | 1.24 µM | 0.287 µM | 0.965 µM | 0.11 µM | 0.531 µM | – | – | 0.282 µM | 1.2 µM | 0.176 µM | 0.736 µM | 0.23 µM | 1.51 µM | 0.157 µM | 0.887 µM | 0.173 µM | 0.382 µM | 0.218 µM | 1.38 µM |
| Cc1c(-c2ccccn2)ccc2ccccc12 | – | > 100 µM | – | > 100 µM | – | > 100 µM | – | – | – | > 100 µM | – | > 100 µM | – | – | – | > 100 µM | – | 82.9 µM | – | > 100 µM |
| Oc1[nH]c2ccccc2c1C=Nc1ccc(-n2cncn2)cc1 | > 18.5 µM | > 25 µM | 18.3 µM | > 25 µM | – | – | > 25 µM | > 25 µM | > 25 µM | > 25 µM | 8.34 µM | > 22.1 µM | 10.7 µM | > 25 µM | 8.79 µM | > 21.9 µM | > 17.7 µM | > 25 µM | > 13.8 µM | > 22.2 µM |
| COc1ccc2c(c1)C(=O)c1c-2n(CCCN(C)C)c(=O)c2cc([N+](=O)[O-])ccc12 | – | – | < 0.01 µM | 0.103 µM | 0.0329 µM | 1.44 µM | < 0.01 µM | 13.6 µM | < 0.01 µM | 1.32 µM | < 0.0227 µM | 1.53 µM | < 0.01 µM | 0.898 µM | < 0.01 µM | 21.6 µM | < 0.01 µM | 0.0294 µM | < 0.01 µM | < 0.0447 µM |
| O=C(NCCNCCO)c1ccc(Nc2nc3ccccc3c3occc23)cc1 | 15.3 µM | 30.1 µM | 14.2 µM | 27.3 µM | 3.01 µM | 18.4 µM | 6.71 µM | 25.1 µM | 7.29 µM | 22 µM | – | – | 14.3 µM | 35.4 µM | 25.8 µM | 90.2 µM | 18.5 µM | 44.9 µM | 12.2 µM | 24.9 µM |
